Data reported in US8329741B2, “Substituted pyrrolidine compounds with central nervous system activity” (The Research Foundation of State University of New York, priority 2007, dated 2012).
“Also recorded” adds a separate entry of the source. Structures can show the parent of a compound that is named as a salt.

Legend:
chakragati (ckr) mice = assay: Screening of candidate compounds based on motor activity in ckr mice; assay type: in vivo, mouse; details: for overall biological activity: based on receptor binding data and ckr mouse screening data (FIGS. 1 and 2, ANOVA)
Procedure: To test the effect of compounds, including compounds of the present invention, on CNS function, chakragati (ckr) mice were used as a model. The DC series compounds were tested on motor activity and PPI in ckr mice.
(§1) Stock solutions of the drugs (DC1 to DC20) were dissolved in DMSO, and then diluted to 10 mg/10 mL with distilled water such that the final concentration of DMSO was 0.5%. Each animal received 10 mg/kg of the test drug in a volume of 0.1 mL per 10 g. […] These compounds were sonicated for 30 minutes in DMSO, acidified to pH 4 to 5 by drop-wise addition of 1M HCl, and then suspended in 20% cyclodextrin solution.
Twenty ckr mice (male and female, 3 months old) were randomly assigned to receive test drugs or 0.5% DMSO vehicle. Each drug was tested in 5 mice. Each mouse received up to 5 randomly assigned drugs in random order. Each treatment was separated by a minimum washout period of 3 days. On the day of testing, mice were brought into the behavioral test room and allowed to acclimatize for at least 1 hour. They then received intraperitoneal injections of the 0.1 mL/10 g (10 mg/kg) of the test drug solutions or vehicle.
They were returned to their cage and 20 minutes later they were placed in a 190 mm diameter, 300 mm deep circular recording chamber. Four mice were tested simultaneous in 4 separate chambers. Between each testing session the chambers were wiped down with 70% ethanol and allowed to dry for at least 10 minutes The mice were monitored with an overhead video camera for 15 min. Their behavior was videotaped and simultaneously digitized and tracked (Ethovision Version 2, Noldus). The total distance moved, the velocity of movement, and the time spent moving were calculated.
The data for each parameter were separately analyzed by one-way ANOVA (Analysis of Variance) and post hoc Dunnett's comparisons with the vehicle-treated control group. Tukey's HSD test was applied for post hoc comparisons between groups. p<0.05 was considered statistically significant.

[1] = Preparation of drug solutions (dissolution in DMSO); assay type: physicochemical; details: stock solution preparation
Procedure: as §1

5-HT transport sites = biological target: T1, 5-HT transport sites (Rattus norvegicus, UniProt P31652); assay: Displacement of [3H]paroxetine binding in membranes from rat frontal cortex
T1 construct: striatum and frontal cortex dissected from frozen Sprague-Dawley rat brains (Pel-Freez, Rogers, Ark.); tissue Pel-Freez, Rogers, Ark; host or cells: rat frontal cortex membranes (Sprague-Dawley rat brain)
Procedure: Binding of substituted pyrrolidine compounds at biogenic amine transporters was determined using striatum and frontal cortex dissected from frozen Sprague-Dawley rat brains (Pel-Freez, Rogers, Ark.). Affinities of the compounds at dopamine (DA) transport sites were determined by displacement of [^125I] 3 beta-(4-iodophenyl)tropan-2 beta-carboxylic acid methyl ester (RTI-55) binding in membranes from rat striatum, using 0.5 mg (original wet weight) of membranes and 10 pM [^125I]RTI-55. Non-specific binding was determined in the presence of 1 μM 2β-propanoyl-3β-(2-naphthyl) tropane (WF-23). Affinities of the compounds at 5-HT transport sites were determined by displacement of [^3H]paroxetine binding in membranes from rat frontal cortex, using 50 mg (original wet weight) of membranes and 0.4 nM [^3H]paroxetine. Non-specific binding was determined in the presence of 10 μM fluoxetine. Binding of the compounds at norepinephrine (NE) transport sites was determined by displacement of [^3H]nisoxetine binding in membranes from rat forebrain, using 0.7 nM [^3H]nisoxetine. Non-specific binding was determined in the presence of 1 μM desipramine.
Potencies in FIGS. 3 and 4 were calculated from displacement curves using 7-10 concentrations of unlabeled compounds, as analyzed by non-linear curve fitting. […]

ckr mouse = assay: Validation of ckr mouse model with antipsychotics (hyperactivity and circling); assay type: in vivo; details: concentrations relevant to human clinical use
Excerpt: The ckr mouse was serendipitously created as a result of a transgenic insertional mutation. […] The ckr mouse also appears to show reduced social interactions resembling the social withdrawal that is part of the constellation of negative symptoms of schizophrenia. The mouse also presents lateral ventricular enlargement, which may mirror neuropathological observations in schizophrenia.
The model has been further validated by testing risperidone, haloperidol and pimozide in the ckr mouse. The behavioral output was assayed by measuring the rate of hyperactivity and circling after administration. […] Based on the foregoing, the ckr mouse model is considered to be valid for evaluation of compounds for use in reducing the symptoms of neuropsychiatric disorders in mammals, including humans.

T1 sequence (P31652 whole entry): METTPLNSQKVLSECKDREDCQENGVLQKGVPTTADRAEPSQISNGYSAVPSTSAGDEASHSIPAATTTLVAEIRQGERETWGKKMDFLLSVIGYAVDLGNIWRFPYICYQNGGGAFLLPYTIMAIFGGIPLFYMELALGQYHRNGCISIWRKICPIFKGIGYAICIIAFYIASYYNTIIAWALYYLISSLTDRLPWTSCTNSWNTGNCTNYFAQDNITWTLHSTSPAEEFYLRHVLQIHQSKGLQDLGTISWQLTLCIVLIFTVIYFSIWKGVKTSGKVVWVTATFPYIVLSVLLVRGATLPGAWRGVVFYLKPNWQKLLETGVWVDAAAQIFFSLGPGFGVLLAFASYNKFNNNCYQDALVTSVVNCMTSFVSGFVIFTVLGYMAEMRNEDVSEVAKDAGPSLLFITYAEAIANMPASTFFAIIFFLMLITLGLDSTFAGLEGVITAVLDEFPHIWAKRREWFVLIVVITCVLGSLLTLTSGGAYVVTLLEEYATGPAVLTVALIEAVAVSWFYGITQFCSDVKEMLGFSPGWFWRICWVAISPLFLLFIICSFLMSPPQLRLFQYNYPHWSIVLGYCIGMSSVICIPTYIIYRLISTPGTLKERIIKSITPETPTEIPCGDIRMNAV

COC(=O)[C@H](c1ccc2ccccc2c1)[C@@H]1C[C@@H](OC)CN1 [DC16, (R)-methyl 2-((2S,4R)-4-methoxypyrrolidin-2-yl)-2-(naphthalen-2-yl)acetate hydrochloride]
overall biological activity (chakragati (ckr) mice; hydrochloride): has biological activity; also recorded: favorable biological activity | total distance moved (chakragati (ckr) mice; ckr mice, 10 mg/kg intraperitoneal, 20 minutes after injection, monitored 15 min, vs vehicle (FIG. 1a)): trend towards decreased | velocity of movement (chakragati (ckr) mice; ckr mice, 10 mg/kg intraperitoneal, 20 minutes after injection, monitored 15 min, vs vehicle (FIG. 1b)): trend towards decreased | time spent moving (chakragati (ckr) mice; ckr mice, 10 mg/kg intraperitoneal, 20 minutes after injection, monitored 15 min, vs vehicle (FIG. 1c)): trend towards a decrease | solubility in DMSO alone [1]: difficult to dissolve in DMSO alone

COC(=O)[C@H](c1ccc(Cl)c(Cl)c1)[C@@H]1C[C@@H](O)CN1 [DC-17, (R)-methyl 2-(3,4-dichlorophenyl)-2-((2S,4R)-4-hydroxypyrrolidin-2-yl)acetate hydrochloride]
overall biological activity (chakragati (ckr) mice): favorable biological activity

COC(=O)[C@H](c1ccc2ccccc2c1)[C@@H]1C[C@@H](O)CN1.Cl [HDMP-80, (R)-methyl 2-((2S,4R)-4-hydroxypyrrolidin-2-yl)-2-(naphthalen-2-yl)acetate hydrochloride]
binding affinity for the serotonin transporter (5-HT transport sites): high binding affinity

O=C(CCCN1CCC(O)(c2ccc(Cl)cc2)CC1)c1ccc(F)cc1 [haloperidol]
hyperactivity in ckr mice (ckr mouse): dose-dependent attenuation

Cc1nc2n(c(=O)c1CCN1CCC(c3noc4cc(F)ccc34)CC1)CCCC2 [risperidone]
hyperactivity in ckr mice (ckr mouse): dose-dependent attenuation
